Assay results: ChEMBL document CHEMBL4364264, “Tetrazole hybrids with potential anticancer activity” (Eur J Med Chem, 2019)
≈ marks a conversion by molar mass, not a printed value. Each block holds one molecule with its values, some of them ahead of it.

What was measured:
HT-29 = assay: cells; details: Homo sapiens, HT-29, 48 h
Description: Antiproliferative activity against human HT-29 cells after 48 hrs by MTT assay

PC-3 [1] = assay: cells; details: Homo sapiens, PC-3, 48 h
HCT-116 = assay: Cytotoxicity against human HCT116 cells; format: functional, cell-based
PC-3 [2] = assay: Cytotoxicity against human PC3 cells; format: functional, cell-based
MCF7 [3] = assay: Growth inhibition of human MCF7 cells by microtiter plate assay; format: functional
DU-145 = assay: Growth inhibition of human DU145 cells by microtiter plate assay; format: functional
MDA-MB-231 [4] = assay: Growth inhibition of human MDA-MB-231 cells by microtiter plate assay; format: functional
MCF7 [5] = assay: Cytotoxicity against human MCF7 cells; format: functional, cell-based
SK-BR-3 = assay: Cytotoxicity against human SKBR3 cells; format: functional, cell-based
Caco-2 = assay: Cytotoxicity against human Caco2 cells; format: functional, cell-based
HeLa [6] = assay: Cytotoxicity against human HeLa cells; format: functional, cell-based
HepG2 = assay: Growth inhibition of human HepG2 cells; format: functional
HeLa [7] = assay: Growth inhibition of human HeLa cells; format: functional
MCF7 [8] = assay: Growth inhibition of human MCF7 cells; format: functional
SiHa = assay: Cytotoxicity against human SiHa cells; format: functional
MDA-MB-231 [9] = assay: Cytotoxicity against human MDA-MB-231 cells; format: functional
PANC-1 = assay: Cytotoxicity against human PANC1 cells; format: functional

IC50 (HT-29): 7.23 to 48.3 µM
IC50 (PC-3 [1]): 7.23 to 48.3 µM
Structure (SMILES): COc1ccccc1-c1nn(-c2ccccc2)cc1-c1nnn(CC(=O)O)n1

Structure (SMILES): COc1cc(/C=C/C(=O)c2ccc(F)cc2)ccc1Oc1nnnn1-c1ccccc1
IC50 (HCT-116): 2.5 to 7 µg/mL (≈ 6 to 16.8 µM)
IC50 (PC-3 [2]): 2.5 to 7 µg/mL (≈ 6 to 16.8 µM)

GI50 (MCF7 [3]): 0.8 to 47 µM
GI50 (DU-145): 0.8 to 47 µM
GI50 (MDA-MB-231 [4]): 0.8 to 47 µM
Structure (SMILES): CCc1cc2c(cc1OS(N)(=O)=O)CC[C@@H]1[C@@H]2CC[C@]2(C)[C@@H](Cc3nnn(C)n3)CC[C@@H]12

Structure (SMILES): COc1ccc(C2C(c3nnn[nH]3)=C(N)Oc3ccc4ccccc4c32)c(OC)c1 (centres undefined)
IC50 (MCF7 [5]): 15 to 26 µM
IC50 (SK-BR-3): 15 to 26 µM
IC50 (Caco-2): 15 to 26 µM
IC50 (HeLa [6]): 15 to 26 µM

IC50 (HT-29): 86.3 µM
IC50 (PC-3 [1]): 70.2 µM
Structure (SMILES): O=C(O)Cn1nnc(-c2cn(-c3ccccc3)nc2-c2ccccc2)n1

Structure (SMILES): COc1ccc(C(=O)/C=C/c2ccc(Oc3nnnn3-c3ccccc3)cc2)cc1OC
IC50 (HCT-116): 3.7 µg/mL (≈ 8.64 µM)
IC50 (PC-3 [2]): 3 µg/mL (≈ 7 µM)

GI50 (HepG2): 5.2 to 8.1 µM
GI50 (HeLa [7]): 5.2 to 8.1 µM
GI50 (MCF7 [8]): 5.2 to 8.1 µM
Structure (SMILES): NC(=S)NNC(c1ccccc1)n1cnnn1 (centres undefined)

Structure (SMILES): CCn1cc(C(=O)O)c(=O)c2cnc(N3CCN(C(=O)CCSc4nnnn4-c4ccc(F)c(F)c4F)CC3)nc21
GI50 (SiHa): 0.066 to 1.3 µM
GI50 (MDA-MB-231 [9]): 0.066 to 1.3 µM
GI50 (PANC-1): 0.066 to 1.3 µM

Structure (SMILES): COc1ccc(OC)c(C2C(c3nnn[nH]3)=C(N)Oc3ccc4ccccc4c32)c1 (centres undefined)
IC50 (MCF7 [5]): 15 to 87 µM
IC50 (SK-BR-3): 15 to 87 µM
IC50 (Caco-2): 15 to 87 µM
IC50 (HeLa [6]): 15 to 87 µM

Structure (SMILES): O=C(O)c1cn(C2CC2)c2cc(N3CCN(C(=O)CCSc4nnnn4-c4ccc(Br)cc4)CC3)c(F)cc2c1=O
GI50 (SiHa): 0.066 to 1.3 µM
GI50 (MDA-MB-231 [9]): 0.066 to 1.3 µM
GI50 (PANC-1): 0.066 to 1.3 µM

GI50 (MCF7 [3]): 0.34 to 100 µM
GI50 (DU-145): 0.34 to 100 µM
GI50 (MDA-MB-231 [4]): 0.34 to 100 µM
Structure (SMILES): CCc1cc2c(cc1O)CC[C@@H]1[C@@H]2CC[C@]2(C)[C@@H](Cc3nnn[nH]3)CC[C@@H]12

IC50 (HT-29): 6.43 to 18.2 µM
IC50 (PC-3 [1]): 6.43 to 18.2 µM
Structure (SMILES): O=C(O)Cn1nnc(-c2cn(-c3ccccc3)nc2-c2ccccc2Cl)n1

IC50 (HT-29): 7.23 to 48.3 µM
IC50 (PC-3 [1]): 7.23 to 48.3 µM
Structure (SMILES): COc1ccc(-c2nn(-c3ccccc3)cc2-c2nnn(CC(=O)O)n2)cc1

Structure (SMILES): COc1cc(/C=C/C(=O)c2ccc(Cl)cc2)ccc1Oc1nnnn1-c1ccccc1
IC50 (HCT-116): 2.5 to 7 µg/mL (≈ 5.78 to 16.2 µM)
IC50 (PC-3 [2]): 2.5 to 7 µg/mL (≈ 5.78 to 16.2 µM)

Structure (SMILES): NC1=C(c2nnn[nH]2)C(c2ccc(Br)cc2)c2c(ccc3ccccc23)O1 (centres undefined)
IC50 (MCF7 [5]): 15 to 87 µM
IC50 (SK-BR-3): 15 to 87 µM
IC50 (Caco-2): 15 to 87 µM
IC50 (HeLa [6]): 15 to 87 µM

GI50 (MCF7 [3]): 0.34 to 100 µM
GI50 (DU-145): 0.34 to 100 µM
GI50 (MDA-MB-231 [4]): 0.34 to 100 µM
Structure (SMILES): CCc1cc2c(cc1O)CC[C@@H]1[C@@H]2CC[C@]2(C)[C@@H](Cc3nnnn3C)CC[C@@H]12

Structure (SMILES): NC1=C(c2nnn[nH]2)C(c2cccc(O)c2)c2c(ccc3ccccc23)O1 (centres undefined)
IC50 (MCF7 [5]): 15 to 87 µM
IC50 (SK-BR-3): 15 to 87 µM
IC50 (Caco-2): 15 to 87 µM
IC50 (HeLa [6]): 15 to 87 µM

Structure (SMILES): COc1ccccc1C1C(c2nnn[nH]2)=C(N)Oc2ccc3ccccc3c21 (centres undefined)
IC50 (MCF7 [5]): 15 to 87 µM
IC50 (SK-BR-3): 15 to 87 µM
IC50 (Caco-2): 15 to 87 µM
IC50 (HeLa [6]): 15 to 87 µM

GI50 (HepG2): 5.2 to 29.8 µM
GI50 (HeLa [7]): 5.2 to 29.8 µM
GI50 (MCF7 [8]): 5.2 to 29.8 µM
Structure (SMILES): NC(=S)NNC(c1ccc(O)cc1)n1cnnn1 (centres undefined)

GI50 (HepG2): 5.2 to 29.8 µM
GI50 (HeLa [7]): 5.2 to 29.8 µM
GI50 (MCF7 [8]): 5.2 to 29.8 µM
Structure (SMILES): NC(=S)NNC(c1ccc(Cl)cc1)n1cnnn1 (centres undefined)

Structure (SMILES): O=C(O)c1cn(C2CC2)c2cc(N3CCN(C(=O)CCSc4nnnn4Cc4ccccc4)CC3)c(F)cc2c1=O
GI50 (SiHa): 0.085 to 1.15 µM
GI50 (MDA-MB-231 [9]): 0.085 to 1.15 µM
GI50 (PANC-1): 0.085 to 1.15 µM

Structure (SMILES): COc1ccc(C(=O)/C=C/c2ccc(Oc3nnnn3-c3ccccc3)c(OC)c2)cc1OC
IC50 (HCT-116): 1.6 µg/mL (≈ 3.49 µM)
IC50 (PC-3 [2]): 2.2 µg/mL (≈ 4.8 µM)

Structure (SMILES): CCn1cc(C(=O)O)c(=O)c2cnc(N3CCN(C(=O)CCSc4nnnn4-c4ccc(C(F)(F)F)cc4)CC3)nc21
GI50 (SiHa): 0.066 to 1.3 µM
GI50 (MDA-MB-231 [9]): 0.066 to 1.3 µM
GI50 (PANC-1): 0.066 to 1.3 µM

GI50 (HepG2): 8.2 to 41 µM
GI50 (HeLa [7]): 8.2 to 41 µM
GI50 (MCF7 [8]): 8.2 to 41 µM
Structure (SMILES): CN(C)C(=O)NC(c1ccc(O)cc1)n1cnnn1 (centres undefined)

Structure (SMILES): O=C(/C=C/c1ccccc1Oc1nnnn1-c1ccccc1)c1ccccc1
IC50 (HCT-116): 0.6 µg/mL (≈ 1.63 µM)
IC50 (PC-3 [2]): 1.6 µg/mL (≈ 4.34 µM)

Structure (SMILES): CC/C(=C(\c1ccccc1)c1ccc(OCCN(C)C)cc1)c1ccccc1 [TAMOXIFEN]
GI50 (SiHa): 0.12 µM
GI50 (MDA-MB-231 [9]): 0.24 µM
GI50 (PANC-1): 0.15 µM
